Four molecules from PMC7026418, “The kinase polypharmacology landscape of clinical PARP inhibitors” (Scientific Reports, 2020) can be followed below.

Like-named read-outs stand apart in the source and are kept apart here.

What all share (assay): biochemical
Holding throughout (design): DiscoveRx KINOMEscan active site-directed competition binding; percent of control kinase bound to immobilised ligand

For one test, the target named is T1, NEK1 (Homo sapiens, UniProt Q96PY6).
T1 sequence (Q96PY6 1-1258): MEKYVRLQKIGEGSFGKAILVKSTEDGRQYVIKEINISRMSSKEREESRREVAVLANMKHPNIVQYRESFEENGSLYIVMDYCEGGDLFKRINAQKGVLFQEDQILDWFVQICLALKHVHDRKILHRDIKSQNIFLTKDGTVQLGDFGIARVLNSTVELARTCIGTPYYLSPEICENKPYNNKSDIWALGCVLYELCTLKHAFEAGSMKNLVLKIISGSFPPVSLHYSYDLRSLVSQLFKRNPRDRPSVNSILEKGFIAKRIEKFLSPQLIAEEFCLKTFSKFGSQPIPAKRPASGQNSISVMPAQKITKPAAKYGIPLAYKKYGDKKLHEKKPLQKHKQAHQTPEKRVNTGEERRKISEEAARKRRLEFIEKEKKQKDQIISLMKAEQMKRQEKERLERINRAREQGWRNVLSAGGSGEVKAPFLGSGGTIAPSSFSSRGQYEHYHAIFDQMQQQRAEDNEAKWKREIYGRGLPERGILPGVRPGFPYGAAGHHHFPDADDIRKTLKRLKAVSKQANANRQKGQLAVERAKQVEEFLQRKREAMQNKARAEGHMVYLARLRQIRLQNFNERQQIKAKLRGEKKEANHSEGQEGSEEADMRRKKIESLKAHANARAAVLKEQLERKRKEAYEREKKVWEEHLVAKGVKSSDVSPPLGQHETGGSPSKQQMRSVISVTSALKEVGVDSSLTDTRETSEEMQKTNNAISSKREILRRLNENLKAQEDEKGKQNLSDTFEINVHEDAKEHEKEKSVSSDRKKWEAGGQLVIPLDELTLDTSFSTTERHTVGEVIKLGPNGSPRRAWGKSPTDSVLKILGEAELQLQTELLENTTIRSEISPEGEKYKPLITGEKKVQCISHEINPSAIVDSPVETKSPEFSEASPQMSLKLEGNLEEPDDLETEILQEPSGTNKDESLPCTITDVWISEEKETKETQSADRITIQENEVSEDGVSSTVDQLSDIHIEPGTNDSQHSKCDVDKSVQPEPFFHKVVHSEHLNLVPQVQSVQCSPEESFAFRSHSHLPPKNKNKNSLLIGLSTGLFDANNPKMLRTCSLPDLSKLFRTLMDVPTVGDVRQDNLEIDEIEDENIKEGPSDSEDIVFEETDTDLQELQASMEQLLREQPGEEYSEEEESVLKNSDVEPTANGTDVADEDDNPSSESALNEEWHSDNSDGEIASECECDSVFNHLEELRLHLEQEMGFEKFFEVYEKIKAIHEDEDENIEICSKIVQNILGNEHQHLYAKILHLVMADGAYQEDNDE

In the next test the target is EGFR(L861Q) (Homo sapiens, UniProt P00533, L861Q).
The next test deals with T2, PIK3CD (Homo sapiens, UniProt O00329).
T2 sequence (O00329 1-1044): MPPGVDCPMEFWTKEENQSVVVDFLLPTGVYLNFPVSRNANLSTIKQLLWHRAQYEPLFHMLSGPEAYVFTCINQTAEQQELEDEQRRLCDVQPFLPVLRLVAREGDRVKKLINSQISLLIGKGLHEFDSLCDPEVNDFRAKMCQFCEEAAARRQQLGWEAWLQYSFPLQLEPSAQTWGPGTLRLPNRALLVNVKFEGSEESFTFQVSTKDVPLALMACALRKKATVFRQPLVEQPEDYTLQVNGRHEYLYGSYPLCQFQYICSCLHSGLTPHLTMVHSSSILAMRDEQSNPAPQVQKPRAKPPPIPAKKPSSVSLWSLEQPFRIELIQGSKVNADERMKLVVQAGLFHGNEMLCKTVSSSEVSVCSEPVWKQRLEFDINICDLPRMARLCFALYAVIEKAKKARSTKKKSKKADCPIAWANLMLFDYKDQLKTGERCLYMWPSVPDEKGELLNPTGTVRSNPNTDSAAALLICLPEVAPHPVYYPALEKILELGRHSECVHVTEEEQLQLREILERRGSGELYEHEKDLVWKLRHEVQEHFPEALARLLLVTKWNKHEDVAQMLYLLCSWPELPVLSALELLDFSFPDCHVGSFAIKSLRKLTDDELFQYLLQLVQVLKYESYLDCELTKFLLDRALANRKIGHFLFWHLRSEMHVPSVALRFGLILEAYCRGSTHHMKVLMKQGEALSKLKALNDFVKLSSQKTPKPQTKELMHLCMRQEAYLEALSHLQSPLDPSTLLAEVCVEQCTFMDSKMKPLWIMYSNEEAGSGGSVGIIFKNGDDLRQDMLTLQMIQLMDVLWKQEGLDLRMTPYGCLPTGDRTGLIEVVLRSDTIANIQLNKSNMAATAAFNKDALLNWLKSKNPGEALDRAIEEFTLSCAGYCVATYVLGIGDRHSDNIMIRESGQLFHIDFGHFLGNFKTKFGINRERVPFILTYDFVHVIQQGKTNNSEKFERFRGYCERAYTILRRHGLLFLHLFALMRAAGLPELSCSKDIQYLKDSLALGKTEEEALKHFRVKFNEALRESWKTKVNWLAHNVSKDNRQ

In a further test the target is CSNK1G3 (Homo sapiens, UniProt Q9Y6M4).
For another test, the target named is T3, AURKC (Homo sapiens, UniProt Q9UQB9).
T3 sequence (Q9UQB9 1-309): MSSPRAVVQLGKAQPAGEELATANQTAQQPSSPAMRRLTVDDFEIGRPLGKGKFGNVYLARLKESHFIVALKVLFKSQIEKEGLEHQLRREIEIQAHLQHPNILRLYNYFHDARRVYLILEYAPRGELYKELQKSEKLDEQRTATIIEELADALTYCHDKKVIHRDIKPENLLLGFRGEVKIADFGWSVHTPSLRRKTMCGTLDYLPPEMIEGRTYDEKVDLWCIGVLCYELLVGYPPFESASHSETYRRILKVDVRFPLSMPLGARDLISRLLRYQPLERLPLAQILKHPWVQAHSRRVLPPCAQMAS

The mark [1] stands for this setting: read-out: Rucaparib / %Ctrl @ 10000nM, binding competition, % of control.
Setting [2] is: read-out: Talazoparib (BMN 673) / %Ctrl @ 10000nM.
Where [3] appears, read: read-out: Niraparib (MK-4827) / %Ctrl @ 10000nM.
The mark [4] stands for this setting: read-out: Olaparib / %Ctrl @ 10000nM.

CSNK1G3, sequence (Q9Y6M4 whole entry): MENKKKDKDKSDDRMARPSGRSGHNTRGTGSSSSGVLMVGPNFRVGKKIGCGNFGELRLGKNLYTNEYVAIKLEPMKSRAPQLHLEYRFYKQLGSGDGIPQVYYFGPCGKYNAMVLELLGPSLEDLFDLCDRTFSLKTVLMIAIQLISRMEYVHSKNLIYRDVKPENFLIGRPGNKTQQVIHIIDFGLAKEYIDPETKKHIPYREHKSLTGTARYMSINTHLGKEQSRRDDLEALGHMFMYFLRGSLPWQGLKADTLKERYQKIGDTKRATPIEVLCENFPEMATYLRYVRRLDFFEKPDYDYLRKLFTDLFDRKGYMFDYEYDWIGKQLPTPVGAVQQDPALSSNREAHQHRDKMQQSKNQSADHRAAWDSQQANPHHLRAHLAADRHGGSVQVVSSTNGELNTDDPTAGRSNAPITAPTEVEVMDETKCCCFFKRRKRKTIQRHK
EGFR(L861Q), sequence (P00533 whole entry L861Q): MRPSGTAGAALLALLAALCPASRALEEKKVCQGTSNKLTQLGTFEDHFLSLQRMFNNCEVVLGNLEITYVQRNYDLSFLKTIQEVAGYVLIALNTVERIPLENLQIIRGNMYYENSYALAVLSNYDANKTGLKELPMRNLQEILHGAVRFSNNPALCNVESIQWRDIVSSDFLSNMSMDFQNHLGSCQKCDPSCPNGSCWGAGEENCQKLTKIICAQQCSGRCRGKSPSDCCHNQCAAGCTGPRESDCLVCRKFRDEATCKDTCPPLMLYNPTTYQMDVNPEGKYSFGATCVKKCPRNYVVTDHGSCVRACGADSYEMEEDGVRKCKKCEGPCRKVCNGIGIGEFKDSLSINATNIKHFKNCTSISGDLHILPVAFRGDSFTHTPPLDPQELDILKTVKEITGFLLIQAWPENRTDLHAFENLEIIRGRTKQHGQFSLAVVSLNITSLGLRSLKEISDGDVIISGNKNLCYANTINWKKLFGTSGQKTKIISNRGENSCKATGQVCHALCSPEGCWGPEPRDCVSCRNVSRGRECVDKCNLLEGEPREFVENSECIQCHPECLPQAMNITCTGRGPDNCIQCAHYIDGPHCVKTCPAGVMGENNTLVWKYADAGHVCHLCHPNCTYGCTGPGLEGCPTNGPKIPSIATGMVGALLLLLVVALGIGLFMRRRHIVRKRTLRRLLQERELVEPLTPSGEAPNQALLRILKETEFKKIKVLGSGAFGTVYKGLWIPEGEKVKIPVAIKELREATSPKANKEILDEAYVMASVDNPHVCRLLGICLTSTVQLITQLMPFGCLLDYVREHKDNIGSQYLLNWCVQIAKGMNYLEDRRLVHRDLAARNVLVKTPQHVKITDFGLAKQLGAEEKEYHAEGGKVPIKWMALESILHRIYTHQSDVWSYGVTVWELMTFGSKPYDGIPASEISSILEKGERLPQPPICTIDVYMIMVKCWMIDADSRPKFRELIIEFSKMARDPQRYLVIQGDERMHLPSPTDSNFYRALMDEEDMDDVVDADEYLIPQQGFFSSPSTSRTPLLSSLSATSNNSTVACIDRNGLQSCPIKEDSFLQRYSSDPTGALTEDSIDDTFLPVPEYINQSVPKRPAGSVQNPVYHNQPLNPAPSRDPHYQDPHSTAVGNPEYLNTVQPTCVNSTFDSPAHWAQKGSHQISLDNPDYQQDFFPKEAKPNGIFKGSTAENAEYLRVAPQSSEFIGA

In the case of `CNCc1ccc(-c2[nH]c3cc(F)cc4c3c2CCNC4=O)cc1` [Rucaparib], the percent of control binding at 10 µM was 90% on NEK1 (setting [1]); 70% at EGFR(L861Q) (setting [1]); 64% on PIK3CD (setting [1]); 97% on CSNK1G3 (setting [1]); 78% at AURKC (setting [1]).

For `Cn1ncnc1[C@H]1c2n[nH]c(=O)c3cc(F)cc(c23)N[C@@H]1c1ccc(F)cc1` [Talazoparib], the percent of control binding at 10 µM worked out at 80% on NEK1 (setting [2]); 82% on EGFR(L861Q) (setting [2]); 82% on PIK3CD (setting [2]); 88% at CSNK1G3 (setting [2]); 100% at AURKC (setting [2]).

Turning to `NC(=O)c1cccc2cn(-c3ccc([C@@H]4CCCNC4)cc3)nc12` [Niraparib], the percent of control binding at 10 µM on NEK1 (setting [3]) came out at 98%; on EGFR(L861Q) (setting [3]), 88%; at PIK3CD (setting [3]), 73%; on CSNK1G3 (setting [3]), 85%; on AURKC (setting [3]), 56%.

In the case of `O=C(c1cc(Cc2n[nH]c(=O)c3ccccc23)ccc1F)N1CCN(C(=O)C2CC2)CC1` [Olaparib], the percent of control binding at 10 µM on NEK1 (setting [4]) was 74%; at EGFR(L861Q) (setting [4]), 91%; at PIK3CD (setting [4]), 75%; at CSNK1G3 (setting [4]) it was 93%; at AURKC (setting [4]), 97%.
